Key:
[1] = tested on: IRF3 translocation induced by dsDNA (ISD); test: IRF3 translocation inhibition, confocal/immunofluorescence after ISD transfection; type: cell-based; conditions: Homo sapiens, % means blockage of IRF3 translocation induced by dsDNA (ISD)
Experimental: Inhibition of IFNβ expression was measured by Luciferase induction at 24 hours after transfection of ISD. […]. […] FIG. 3H qPCR of IFNβ 1 performed in MEFs treated same as in FIG. 3A. FIG. 3I qPCR of CCL5 performed in MEFs treated same as in FIG. 3A.
Immunofluorescence Microscopy: Cells were cultured and treated in their appropriate media on Lab-Tek II chamber slides. Cell were fixed with 4% paraformaldehyde for 15 minutes in at 37° C. and permeabilized with 0.05% Triton X-100 for 5 minutes at room temperature. Immunostaining was performed with rabbit-anti-STING polyclonal, rabbit-anti-IRF3 (Santa Cruz Biotechnology) or rabbit-anti-p65 (Cell Signaling) followed by fluorescence conjugated secondary antibodies (FITC-goat-anti-rabbit) (Invitrogen).

pIRF3, pSTING = test: Western blot of pIRF3, pSTING, pTBK1 after ISD transfection in hTERT cells; type: cell-based, human; conditions: Homo sapiens
Experimental: FIG. 1C are photographs showing Western blot analysis of STING, phospho-TBK1 (pTBK1) and phospho-IRF3 (pIRF3) performed at 6 hours after ISD transfection with/without W1 treatment same as FIG. 1A, Mock is shown (210), ISD treatment only (220) was used as a control, according to an embodiment of the invention;
Immunoblot analysis: Equal amounts of proteins were resolved on sodium dodecyl sulfate (SDS)-Polyacrylamide gels and then transferred to polyvinylidene fluoride (PVDF) membranes (Millipore). After blocking with 5% Blocking Reagent, membranes were incubated with various primary antibodies (and appropriate secondary antibodies). The image was resolved using an enhanced chemiluminescence system ECL (Thermo Scientific) and detected by autoradiography (Kodak). Antibodies: rabbit polyclonal antibody against STING was developed in our laboratory as described previously in Ishikawa et al, 2008; other antibodies were obtained from following sources: β-actin (Sigma Aldrich), p-IRF3 (Cell Signaling), IRF3 (Santa Cruz Biotechnology), p-p65 (Cell Signaling), p65 (Cell Signaling), p-TBK1 (Cell Signaling), TBK1 (Abcam), cGAS (Cell Signaling).

[2] = tested on: IFNβ expression (type I IFNβ promoter driving luciferase); test: IFNβ promoter luciferase assay in hTERT-pIFNβ-Glu cells transfected with ISD; type: cell-based, human; conditions: Homo sapiens
Experimental: Inhibition of IFNβ expression was measured by Luciferase induction at 24 hours after transfection of ISD, DMSO is shown (230), ISD treatment only (220) was used as a control, according to an embodiment of the invention;
Inhibition of IFNβ expression was measured by Luciferase induction at 24 hours after transfection of ISD, Mock is shown (210), ISD treatment only (220) was used as a control, according to an embodiment of the invention;
Identification of small molecule inhibitors of STING. In the presence of cytosolic DNA species, STING becomes activated to drive the transcription of cytokines such as type I IFN. Compounds binding to STING via TSA were subsequently examined for their ability to prevent cytosolic DNA species from activating the type I interferon (IFN) promoter, using a live cell assay. This assay comprised immortalized human fibroblasts (hTERT) that were stably transfected with the type I IFN promoter driving luciferase as well as the CMV promoter driving SEAP (hTERT-pIFNβ-Glu). The live cell assay has previously been disclosed in PCT/US2019/025380 entitled IFN-Beta Reporter System for Immortalized Primary Cells inventor Glen N. Barber, which was filed Apr. 2, 2018 and published as WO2019195285, and which is herein incorporated by reference in its entirety and for all purposes. The ability of the small molecules to prevent activation of the type I IFN promoter and the transcription of luciferase, but not SEAP in response to cytosolic DNA species was assessed. The activation of STING, typically by CDNs, in turn activates the transcription factors NF-κB and IRF3, both of which are required to induce the transcriptional stimulation of the Type I IFN promoter, but not the CMV promoter as IRF3 and NF-kB transcription factor binding sites are not contained in the CMV promoter. The assay identified the small molecule Compound W1 in the first screen (HTS), where the level of luciferase was not able to activate the type I IFN promoter or induce the expression of luciferase (see Table I and Table II).
Inhibition of IFNβ expression was measured by Luciferase induction at 24 hours after transfection of ISD. ISD only treatment was used as control.
Inhibition of IFNβ expression was measured by Luciferase induction at 24 hours after transfection of ISD, Mock is shown (210), ISD treatment only (220) was used as a control.
Luciferase assay: hTERT-BJ1 Telomerase Fibroblasts stably expressing the luciferase gene under the control of the interferon-beta promoter and SEAP gene under control of the CMV promoter) (hTERT-pIFNβ-Glu) were generated by the Barber laboratory. Luciferase assay was performed using Secrete-Pair Dual Luminescence Assay Kit from GeneCopoeia following the manufacturer's protocol.

COc1ccc(-c2nc(CN3CCN(c4cc(C)nc(N(C)C)n4)CC3)cs2)cc1OC [Compound W3, 4-(4-{[2-(3,4-dimethoxyphenyl)-1,3-thiazol-4-yl]methyl}piperazin-1-yl)-N,N,6-trimethylpyrimidin-2-amine]
inhibition at 25 µM [1]: 40 to 50%
inhibition at 10 µM (pIRF3, pSTING): 40 to 50%
inhibition at 5 µM [2]: -37%

Cc1cc(N2CCN(Cc3csc(-c4ccc(C(F)(F)F)cc4)n3)CC2)nc(N(C)C)n1 [Compound W11, N,N,4-trimethyl-6-[4-({2-[4-(trifluoromethyl)phenyl]-1,3-thiazol-4-yl}methyl)piperazin-1-yl]pyrimidin-2-amine]
inhibition at 25 µM [1]: 90 to 100%
inhibition at 10 µM (pIRF3, pSTING): 90 to 100%
inhibition at 5 µM [2]: 38%

COc1ccc(-c2nc(CN3CCN(c4cc(C)nc(N(C)C)n4)CC3)cs2)c(OC)c1 [Compound W13, 4-(4-{[2-(2,4-dimethoxyphenyl)-1,3-thiazol-4-yl]methyl}piperazin-1-yl)-N,N,6-trimethylpyrimidin-2-amine]
inhibition at 25 µM [1]: 40 to 50%
inhibition at 10 µM (pIRF3, pSTING): 90 to 100%
inhibition at 5 µM [2]: 30%

Cc1cc(N2CCN(Cc3csc(-c4ccc(Cl)cc4)n3)CC2)nc(N(C)C)n1 [Compound W14, 4-(4-{[2-(4-chlorophenyl)-1,3-thiazol-4-yl]methyl}piperazin-1-yl)-N,N,6-trimethylpyrimidin-2-amine]
inhibition at 25 µM [1]: ~70%
inhibition at 10 µM (pIRF3, pSTING): 90 to 100%
inhibition at 5 µM [2]: 42%

CCc1ccc(-c2nc(CN3CCN(c4cc(C)nc(N(C)C)n4)CC3)cs2)cc1 [Compound W15]
inhibition at 25 µM [1]: 90 to 100%
inhibition at 10 µM (pIRF3, pSTING): 90 to 100%
inhibition at 5 µM [2]: 69%

Cc1cc(N2CCN(Cc3cnc(-c4ccccc4)s3)CC2)nc(N(C)C)n1 [Compound W19, N,N,4-trimethyl-6-{4-[(2-phenyl-1,3-thiazol-5-yl)methyl]piperazin-1-yl}pyrimidin-2-amine]
inhibition at 10 µM (pIRF3, pSTING): < 10%
inhibition at 5 µM [2]: 76%

Cc1cc(N2CCN(Cc3ncc(-c4ccccc4)s3)CC2)nc(N(C)C)n1 [Compound W20, N,N,4-trimethyl-6-{4-[(5-phenyl-1,3-thiazol-2-yl)methyl]piperazin-1-yl}pyrimidin-2-amine]
inhibition at 25 µM [1]: 40 to 50%
inhibition at 10 µM (pIRF3, pSTING): < 10%
inhibition at 5 µM [2]: 79%

Reference: patent US20240270737A1, “SMALL MOLECULAR INHIBITORS OF STING SIGNALING COMPOSITIONS AND METHODS OF USE” (STINGINN INC., priority 2021, published 2024)
